Assay results: PubChem BioAssay (NCI)
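Briefly, cells in 96-well plates were exposed to five compound concentrations for 48 h, and endpoints were estimated by linear interpolation. The concentration for 50% growth inhibition is given as GI50. The concentration for full growth arrest is given as TGI.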

How the values were obtained:
Assay in all cases: NCI anticancer screen, dose series, 48 h; in the data active means GI50 below about 0.43 µM; inactive means the rest
OVCAR-5 ovarian = tested on: OVCAR-5 ovarian
SNB-75 CNS = tested on: SNB-75 CNS
ACHN renal = tested on: ACHN renal
U251 CNS = tested on: U251 CNS
MDA-MB-231 breast = tested on: MDA-MB-231 breast
CCRF-CEM leukemia = tested on: CCRF-CEM leukemia
HOP-92 NSCLC = tested on: HOP-92 NSCLC
BT-549 breast = tested on: BT-549 breast
NCI-H23 lung = tested on: NCI-H23 lung
SNB-19 CNS = tested on: SNB-19 CNS
RPMI-8226 leukemia = tested on: RPMI-8226 leukemia
UACC-62 melanoma = tested on: UACC-62 melanoma
OVCAR-3 ovarian = tested on: OVCAR-3 ovarian
786-0 renal = tested on: 786-0 renal
SF-539 CNS = tested on: SF-539 CNS
PC-3 prostate = tested on: PC-3 prostate
OVCAR-8 ovarian = tested on: OVCAR-8 ovarian
NCI-H522 lung = tested on: NCI-H522 lung
A549 NSCLC = tested on: A549 NSCLC
HT29 colon = tested on: HT29 colon
A498 renal = tested on: A498 renal
HS 578T breast = tested on: HS 578T breast
HCT-15 colon = tested on: HCT-15 colon
M14 melanoma = tested on: M14 melanoma
EKVX NSCLC = tested on: EKVX NSCLC
UACC-257 melanoma = tested on: UACC-257 melanoma
RXF 393 renal = tested on: RXF 393 renal
OVCAR-4 ovarian = tested on: OVCAR-4 ovarian
HOP-62 NSCLC = tested on: HOP-62 NSCLC

CC(=O)OC1Oc2ccccc2-c2oc(=O)c(-c3ccc(F)cc3)cc21 (stereo not drawn)
83.3 µM: TGI (EKVX NSCLC)
41.7 µM: TGI (SNB-75 CNS)
60.3 µM: TGI (RPMI-8226 leukemia)
71.9 µM: TGI (A498 renal)
71.7 µM: TGI (OVCAR-3 ovarian)
> 100 µM: TGI (OVCAR-5 ovarian) | TGI (ACHN renal) | TGI (U251 CNS) | TGI (MDA-MB-231 breast) | TGI (NCI-H23 lung) | TGI (SNB-19 CNS) | TGI (PC-3 prostate) | TGI (OVCAR-8 ovarian) | TGI (A549 NSCLC) | TGI (HT29 colon) | TGI (HCT-15 colon) | TGI (UACC-257 melanoma) | TGI (OVCAR-4 ovarian)
96.9 µM: TGI (HOP-92 NSCLC)
99.7 µM: TGI (RXF 393 renal)
74.6 µM: TGI (SF-539 CNS)
78.3 µM: TGI (NCI-H522 lung)
inactive: GI50 (OVCAR-5 ovarian) 66.5 µM | GI50 (SNB-75 CNS) 5.59 µM | GI50 (ACHN renal) 31.8 µM | GI50 (U251 CNS) 16.8 µM | GI50 (MDA-MB-231 breast) 33.9 µM | GI50 (CCRF-CEM leukemia) 23.4 µM | GI50 (HOP-92 NSCLC) 29.6 µM | GI50 (BT-549 breast) 23.8 µM | GI50 (NCI-H23 lung) 40.7 µM | GI50 (SNB-19 CNS) 30.6 µM | GI50 (RPMI-8226 leukemia) 24.6 µM | GI50 (UACC-62 melanoma) 10.8 µM | GI50 (OVCAR-3 ovarian) 23.2 µM | GI50 (786-0 renal) 17.7 µM | GI50 (SF-539 CNS) 24.6 µM | GI50 (PC-3 prostate) 32.7 µM | GI50 (OVCAR-8 ovarian) 36.3 µM | GI50 (NCI-H522 lung) 20.2 µM | GI50 (A549 NSCLC) 38.8 µM | GI50 (HT29 colon) 21.6 µM | GI50 (A498 renal) 28.3 µM | GI50 (HS 578T breast) 10.4 µM | GI50 (HCT-15 colon) 20.9 µM | GI50 (M14 melanoma) 25.3 µM | GI50 (EKVX NSCLC) 9.46 µM | GI50 (UACC-257 melanoma) 35.5 µM | GI50 (RXF 393 renal) 26.8 µM | GI50 (OVCAR-4 ovarian) 28.2 µM | GI50 (HOP-62 NSCLC) 8.79 µM
95.8 µM: TGI (M14 melanoma)
77.3 µM: TGI (786-0 renal)
69.1 µM: TGI (BT-549 breast)
40.2 µM: TGI (HOP-62 NSCLC)
55.2 µM: TGI (CCRF-CEM leukemia)
74.7 µM: TGI (HS 578T breast)
33.6 µM: TGI (UACC-62 melanoma)
